According to patent US8338517B2, “Aqueous compositions of fluorinated surfactants and methods of using the same” (3M Innovative Properties Company, priority 2007, dated 2012):

Test: Static surface tension of aqueous surfactant solutions (Kruss K-12 tensiometer, Du Nouy ring method)
Type: physicochemical
Settings: 1000 ppm in water, 20° C.
Description: The solution from was diluted with water to a concentration of 1000 ppm.
The procedure of Preparation 1 was followed except using 16.3 grams of C3F7OCHFCF2COOCH3 instead of the CF3O(CF2)3OCHFCF2COOCH3 to prepare a solution of C3F7OCHFCF2COOK. This solution was diluted with water to a concentration of 1000 ppm.
Static surface tensions were measured on the solutions of Preparations 1 to 6 using a Kruss K-12 tensiometer (obtained from Kruss GmbH, Hamburg, Germany) using the Du Nouy ring method at 20° C.

With `O=C([O-])C(F)(F)C(F)(F)C(F)(F)C(F)(F)C(F)(F)F.[K+]` [potassium perfluorohexanoate] the “Surface Tension” value was 58.5 mN/m.
